Converted amounts (≈) assume the structure as drawn.
How the values were obtained:
K. pneumoniae CQ1942 = experiment: Broth microdilution MIC, glycosides with or without polymyxins; type: cell-based, Klebsiella pneumoniae; details: Klebsiella pneumoniae, CQ1942; antibiotic alone; strain E; read-out: MIC (antibiotic susceptibility profile)
E. cloacae CQ1941 = experiment: Broth microdilution MIC/MBC, glycosides with or without polymyxins; type: cell-based; details: Enterobacter cloacae, CQ1941; antibiotic alone; strain D; read-out: MIC (antibiotic susceptibility profile)
A. baumannii CQ4322 = experiment: as above; type: cell-based, Acinetobacter baumannii; details: antibiotic alone; strain G
E. coli ATCC 25922 = experiment: as above; type: cell-based, Escherichia coli; details: Escherichia coli, ATCC25922; antibiotic alone; strain A; read-out: MIC (antibiotic susceptibility profile)
P. aeruginosa CQ4924 = experiment: Broth microdilution MIC, glycosides with or without polymyxins; type: cell-based, Pseudomonas aeruginosa; details: antibiotic alone; strain H
K. pneumoniae CQ1947 = experiment: as above; type: cell-based, Klebsiella pneumoniae; details: Klebsiella pneumoniae, CQ1947; antibiotic alone; strain F; read-out: MIC (antibiotic susceptibility profile)
K. pneumoniae CQ4921 = experiment: Broth microdilution MIC/MBC, glycosides with or without polymyxins; type: cell-based, Klebsiella pneumoniae; details: antibiotic alone, strain C; for MIC: Klebsiella pneumoniae, CQ4921, read-out: MIC (antibiotic susceptibility profile)

| MIC (K. pneumoniae CQ1942) [mg/L] | MIC (E. cloacae CQ1941) [mg/L] | MIC (antibiotic susceptibility profile) (A. baumannii CQ4322) [mg/L] | MIC (E. coli ATCC 25922) [mg/L] | MIC (antibiotic susceptibility profile) (P. aeruginosa CQ4924) [mg/L] | MIC (K. pneumoniae CQ1947) [mg/L] | MIC (K. pneumoniae CQ4921) [mg/L] | Compound | RIS (susceptibility category) (A. baumannii CQ4322) | RIS (susceptibility category) (P. aeruginosa CQ4924) | RIS (susceptibility category) (K. pneumoniae CQ4921) |
| --- | --- | --- | --- | --- | --- | --- | --- | --- | --- | --- |
| 16 (≈ 27.3 µM) | ≥ 128 | ≥ 128 | 1 to 2 (≈ 1.71 to 3.42 µM) | 4 (≈ 6.83 µM) | 32 (≈ 54.6 µM) | 0.5 to 2 (≈ 0.854 to 3.42 µM) | NCC[C@H](O)C(=O)N[C@@H]1C[C@H](N)[C@@H](O[C@H]2O[C@H](CN)[C@@H](O)[C@H](O)[C@H]2O)[C@H](O)[C@H]1O[C@H]1O[C@H](CO)[C@@H](O)[C@H](N)[C@H]1O [Amikacin, reference compound] |  |  |  |
| > 64 | > 64 |  | 0.03 to 0.06 (≈ 0.0624 to 0.125 µM) |  | 32 (≈ 66.6 µM) |  | CO/N=C(\C(=O)N[C@@H]1C(=O)N2C(C(=O)[O-])=C(C[N+]3(C)CCCC3)CS[C@H]12)c1csc(N)n1 [Cefepime, reference compound] |  |  |  |
| ≥ 128 | ≥ 128 |  | 0.06 (≈ 0.132 µM) |  | ≥ 128 | 2 (≈ 4.39 µM) | CO/N=C(\C(=O)N[C@@H]1C(=O)N2C(C(=O)O)=C(COC(C)=O)CS[C@H]12)c1csc(N)n1 [Cefotaxime, reference compound] | ERP | ERP | I/R |

Second part, the compound before the results:

| Compound | MIC (K. pneumoniae CQ1942) [mg/L] | MIC (E. cloacae CQ1941) [mg/L] | MIC (antibiotic susceptibility profile) (A. baumannii CQ4322) [mg/L] | MIC (E. coli ATCC 25922) [mg/L] | MIC (antibiotic susceptibility profile) (P. aeruginosa CQ4924) [mg/L] | MIC (K. pneumoniae CQ1947) [mg/L] | MIC (K. pneumoniae CQ4921) [mg/L] | RIS (susceptibility category) (A. baumannii CQ4322) | RIS (susceptibility category) (P. aeruginosa CQ4924) | RIS (susceptibility category) (K. pneumoniae CQ4921) |
| --- | --- | --- | --- | --- | --- | --- | --- | --- | --- | --- |
| CC1(C)S[C@@H]2[C@H](NC(=O)[C@H](N)c3ccc(O)cc3)C(=O)N2[C@H]1C(=O)O [Amoxicillin, reference compound] | ≥ 128 | ≥ 128 |  | 4 (≈ 10.9 µM) |  | ≥ 128 | ≥ 128 | ERP | ERP |  |
| CC1(C)S[C@@H]2[C@H](NC(=O)[C@H](N)c3ccccc3)C(=O)N2[C@H]1C(=O)O [Ampicillin, reference compound] | ≥ 128 | ≥ 128 |  | 4 (≈ 11.4 µM) |  | ≥ 128 | ≥ 128 | ERP | ERP |  |
| C[C@H]1[C@H](NC(=O)/C(=N\OC(C)(C)C(=O)O)c2csc(N)n2)C(=O)N1S(=O)(=O)O [Aztreonam, reference compound] | > 64 | > 64 |  |  |  | 0.25 (≈ 0.574 µM) |  | ERP |  |  |
| CC(C)(O/N=C(\C(=O)N[C@@H]1C(=O)N2C(C(=O)[O-])=C(C[n+]3ccccc3)CS[C@H]12)c1csc(N)n1)C(=O)O [Ceftazidime, reference compound] | ≥ 128 | ≥ 128 |  | 0.125 to 0.25 (≈ 0.229 to 0.457 µM) | 4 (≈ 7.32 µM) | ≥ 128 | 1 (≈ 1.83 µM) |  |  |  |

Source: paper PMC10817917, “Alkyl deoxyglycoside-polymyxin combinations against critical priority carbapenem-resistant gram-negative bacteria” (Scientific Reports, 2024)
